The values below come from patent US20250144107A1, “USE OF A PIKFYVE INHIBITOR IN COMBINATION WITH IMMUNOTHERAPY” (The Regents of the University of Michigan, priority 2023, published 2025).

Data set [1] concerns syngeneic pancreatic tumors established with orthotopic injection of KPC1361 cells. The data set can be described thus: Orthotopic KPC1361 pancreatic tumor model with anti-PD-1. It counts as in vivo, mice. Conditions: apilimod 60 mg/kg, ESK981 30 mg/kg oral gavage. The source says: FIG. 8B is a line graph of the efficacy of α-PD1 in combination with apilimod or ESK981 against pancreatic tumors from orthotopically injected KPC1361 cells to mice.
FIG. 8C (Left) is a line graph of flow cytometry measuring surface expression of MHC-I on GPF-labelled cancer cells in pancreatic tumors treated with α-PD1 in combination with apilimod or ESK981; (Right) is a bar graph of quantification of flow cytometry measuring surface expression of MHC-I on GPF-labelled cancer cells in pancreatic tumors treated with α-PD1 in combination with apilimod or ESK981.
FIG. 8D (left) is a series of 3 images of flow cytometry measuring the amount of total CD8^+ T cells, and proportion of activated or proliferative CD8^+ T cells in pancreatic tumors treated with α-PD1 in combination with apilimod or ESK981; (Right) are bar graphs of flow cytometry quantification of the amount of total CD8^+ T cells, and proportion of activated or proliferative CD8^+ T cells in pancreatic tumors treated with α-PD1 in combination with apilimod or ESK981.
FIG. 9A is a line graph of the survival of pancreatic tumor bearing mice, orthotopically injected with KPC1361 cells and treated with an immune checkpoint inhibitor, apilimod, or ESK981 individually, or in combination with each other.
All experimental protocols were conducted after approval by the U-M Institutional Animal Care & Use Committee. […] KPC1361 cells were resuspended in PBS, 1:1 (v/v) mixed with Matrigel (BD Biosciences; catalog #: 354248), and orthotopically injected to the pancreases at 250,000 cells in a total volume of 50 μl per injection. B16-F10 cells were resuspended in PBS and injected subcutaneously to both flanks at 400,000 cells per injection. For ACT study, B16-F10-OVA cells were resuspended in PBS and injected subcutaneously to both flanks at 300,000 cells per injection. For lung metastasis experiment, B16-BL6 cells were resuspended in PBS, 1:1 (v/v) mixed with Matrigel and injected subcutaneously to both flanks at 400,000 cells per injection. Fifteen days after tumor cell inoculation, the primary tumors were removed surgically under anesthesia. Thirty-five days after removal of the primary tumors, lung tissues were extracted and fixed, and lung metastasis was quantified. C57BL/6 mice were acquired from The Jackson Laboratory. Measurement of tumor volume began 5-9 days post tumor cell implantation and was performed 2-3 times per week using calipers. Volume measurements of pancreatic tumors were also achieved with calipers, as reported See, e.g., Koikawa, K. et al., Cell 2021; 184(18):4753-4771. In brief, mice were subjected to anesthesia with 2-3% isoflurane, and the abdominal wall then became soft and loose. […] Volume (mm^3) of tumor was calculated using (W^2×L)/2, where W stood for minor tumor axis and L for the major. […]

Data set [2] is described as follows: Body weight of treated tumor-bearing mice. In kind it is in vivo. Conditions: preclinical models; single agents and in combination with immunotherapies. The source says:
FIG. 9B is a line graph of the body weight of pancreatic tumor bearing mice, orthotopically injected with KPC1361 cells and treated with an immune checkpoint inhibitor, apilimod, or ESK981 individually, or in combination with each other.
FIG. 11A is a line graph of mice body weight treated with adoptive cell therapy (ACT) in combination with apilimod or ESK981.
FIG. 11B is a line graph of mice body weight treated with personalized vaccines in combination with apilimod or ESK981

For data set [3], the system named is KPC1361 cells. Briefly: Immunocytochemistry of MHC-I localization and vacuoles. It counts as cell-based, mouse. Conditions: IFN-γ stimulated KPC1361 cells, vs DMSO. Here is the method: FIG. 1D is a series of 6 images showing MHC-I localization in IFN-γ stimulated KPC1361 cells treated with DMSO, Apilimod, or ESK981.
Cancer cells were seeded on cover glasses coated with 0.01% poly-L-Lysine (Sigma-Aldrich; catalog #: A-005-C). The cells were then treated with DMSO, apilimod, or ESK981, and stimulated with 10 ng/ml mouse recombinant IFN-γ (R&D Systems; catalog #: 485-MI) for 24 hours, followed by fixation with 2% paraformaldehyde in PBS and one washing with PBS. The cells were then permeabilized with 0.25% Triton X-100 in PBS, washed with PBS three times, and blocked with 5% goat serum in PBS for one hour at room temperature. After blocking, the cells were incubated with the MHC-I antibody (ER-HR52; Novus Biologicals; catalog #: NB100-64952) at 4° C. overnight, followed by PBS wash for three times and incubation of secondary antibody, Alexa Fluor 488 goat anti-rat IgG antibody (Jackson Immunoresearch; #112-545-167) at room temperature for one hour. After further washing with PBS three times, the cells were stained with DAPI and mounted on slides for imaging.

Turning to `Cc1cccc(/C=N/Nc2cc(N3CCOCC3)nc(OCCc3ccccn3)n2)c1` [apilimod, N-[(E)-(3-methylphenyl)methylideneamino]-6-morpholin-4-yl-2-(2-pyridin-2-ylethoxy)pyrimidin-4-amine], in data set [1], the “intratumoral activated CD8+ T cells” value was “increase” and the “tumor-specific MHC-I surface expression” value is on record as “upregulation”. Moreover, the safety profile entry in data set [2] was “favorable safety profiles”. In addition, the “cell surface expression of MHC-I” value in data set [3] is recorded as “increased”.
In the same order, the values of `CC(C)Cn1c2ccc(Nc3ncccn3)cc2c2c3c(c4c(c21)CCc1nn(C)cc1-4)C(=O)NC3` [ESK981, 13-isobutyl-4-methyl-10-(pyrimidin-2-ylamino)-1,2,4,7,8,13-hexahydro-6H-indazolo[5,4-a]pyrrolo[3,4-c]carbazol-6-one] are “increase”, “upregulation”, “favorable safety profiles” and “increased”.
